Measured values as given in US20090304663A1, “USE OF GSK-3 INHIBITORS FOR THE TREATMENT OF PROSTATE CANCER” (IMPERIAL INNOVATIONS LIMITED, priority 2004, published 2009).
Entries after “also recorded” stand apart in the source; their conditions may differ. Where two headings read alike, the source gives them in different places.

Key:
[1] = molecular target: GSK-3; details: cited from earlier work
[2] = system: β-catenin/Tcf transcriptional activity; test: β-catenin/Tcf transcriptional activity, pOT-Luciferase reporter in CWR-R1 cells; type: cell-based; details: 20 μM SB415286 or 5 μM SB216763, 24 h, normal growth medium
[3] = system: AR transcriptional activity; test: AR transcriptional activity, MMTV-Luciferase reporter in CWR-R1 cells; type: cell-based
[4] = system: CWR-R1 cells; test: cell growth assay, CWR-R1 cells; type: cell-based; details: for CWR-R1 cell growth (number of cells): 5 μM SB216763 or 20 μM SB415286, up to 6 days
Procedure: (a) CWR-R1 cells were grown in the presence of carrier (ut). […] The experiment was done twice in triplicate and the error bars indicate standard deviation. […] The experiment was done in triplicate and the error bars indicate standard deviation. […] The number of cells was counted after 72 h (or after 5 days for LNCaP cells). Experiments were done in triplicate and the error bars indicate standard deviation. […] Cell growth assays were conducted according to Gregory et al, (2001). Briefly, cells (1.5×10^5/well) were plated in 12-well plates (three wells were used for each condition) and allowed to attach overnight. […] Cells were collected by trypsinisation at the indicated times and were counted using a Coulter Counter or using a haemocytometer.

[5] = system: 22Rv1 cells; test: cell growth assay, 22Rv1 cells; type: cell-based
[6] = system: LNCaP cells; test: cell growth assay, LNCaP cells; type: cell-based; details: 5 μM SB216763, hormone-depleted medium with 1 nM R1881, 5 days
Procedure: (§1) The number of cells was counted after 72 h (or after 5 days for LNCaP cells). Experiments were done in triplicate and the error bars indicate standard deviation. […] Cell growth assays were conducted according to Gregory et al, (2001). Briefly, cells (1.5×10^5/well) were plated in 12-well plates (three wells were used for each condition) and allowed to attach overnight. […] Cells were collected by trypsinisation at the indicated times and were counted using a Coulter Counter or using a haemocytometer.

[7] = system: DU145 cells; test: cell growth assay, DU145 cells; type: cell-based; details: 5 μM SB216763, normal growth medium, 72 h
Procedure: as §1

[8] = system: PC3 cells; test: cell growth assay, PC3 cells; type: cell-based; details: 5 μM SB216763, normal growth medium, 72 h
Procedure: as §1

[9] = system: AR protein; test: AR protein level by western blotting in CWR-R1 cells; type: cell-based; details: 5 μM SB216763 or 20 μM SB415286, 24 h, western blot
Procedure: FIG. 6: Inhibition of GSK-3 leads to a reduction in AR protein levels. […] Western blots of whole cell extracts were probed for AR (upper panels) and reprobed for γ-tubulin as an internal loading control (lower panels).
Cells were grown to 50-70% confluence in 100 mm dishes or 6-well plates. Lysates were obtained using the following steps: Cells were rinsed in cold TBS, lysed in modified RIP A buffer (0.5% deoxycholate, 1% Triton X-100, 20 mM Tris pH 8.0, 0.1% SDS, 100 mM NaCl, 50 mM NaF) or Nonidet P-40 buffer (1% NP-40, 20 mM Tris pH 8.0, 150 mM NaCl, 50 mM NaF) for 10 min and centrifuged for 12 min at 15,000×g. Cell extracts were then mixed with an equal volume of SDS sample buffer (Sigma Aldrich) and heated to 95° C. for 3 min. For immunoprecipitation (IP) assays in transfected COS7 cells, cell extracts were prepared using NP-40 lysis buffer, incubated with primary antibody for 1 h on ice. This was followed by 30 min incubation with 20 μl protein A/G-agarose (Cambridge Biosciences) on a rotating wheel in the cold room. After 4 washes in lysis buffer and 1 wash in TBS, the beads were resuspended in 10 μl of SDS sample buffer and heated as above. […]

[10] = system: inositol monophosphatases; details: in words; cited from earlier work
[11] = molecular target: human GSK-3; details: cited from earlier work
[12] = system: panel of 79 commonly studied protein kinases, including several PKC isozymes; details: in words; cited from earlier work
[13] = CWR-R1 cells, 10 nM R1881, 20 μM SB415286 or 5 μM SB216763, 24 h

Cc1cc(Nc2nc(-c3ccccc3)nc3ccccc23)n[nH]1 [5-Methyl-1H-pyrazol-3-yl)-(2-phenylquinazolin-4-yl)amine]
Ki ([1]; ATP-binding site inhibitor): 24 nM

Cn1cc(C2=C(c3ccc(Cl)cc3Cl)C(=O)NC2=O)c2ccccc21 [SB216763]
β-catenin/Tcf-dependent transcriptional activity [2]: increased
AR transcriptional activity [3, 13]: reduced
growth of CWR-R1 cells (number of cells) ([4]; 5 μM SB216763, normal growth medium, 72 h): significantly reduced
CWR-R1 cell growth (number of cells) [4]: repressed
concentration at which inhibitory effects on cell growth were maximal (optimal dose) ([4]; CWR-R1 cells, 72 h, complete growth medium): 3 µM
growth of 22Rv1 cells (number of cells) ([5]; 5 μM SB216763, hormone-depleted medium with 1 nM R1881, 72 h): significantly reduced
R1881-stimulated growth of 22Rv1 cells ([5]; 5 μM SB216763, hormone-depleted medium with R1881, 72 h): blocked
hormone-independent proliferation of 22Rv1 cells ([5]; 5 μM SB216763, hormone-depleted medium, absence of hormone, 72 h): inhibited
growth of LNCaP cells (number of cells) [6]: significantly reduced; also recorded: weakly inhibited
DU145 cell growth (number of cells) [7]: did not significantly affect
PC3 cell growth (number of cells) [8]: did not significantly affect
protein level of AR [9]: reduced

C[C@]1(O)CC[C@H]2[C@@H]3CCC4=CC(=O)CCC4=C3C=C[C@@]21C [R1881, methyltrienolone]
AR transcriptional activity [3]: increase
growth of 22Rv1 cells ([5]; hormone-depleted medium, 10^−12 M or 10^−9 M R1881, 72 h): stimulated

[Cl-].[Li+] [Lithium chloride, lithium chloride]
IC50 value ([1]; in words): high
inhibition of inositol monophosphatases relative to GSK-3 [10]: to a similar extent

CHIR 98014
Ki [11]: 0.87 nM

O=C1NC(=O)C(c2cn(CCCO)c3ncccc23)=C1c1cnccn1 [3-(1-(3-Hydroxypropyl)-1H-pyrrolo[2,3-b]pyridin-3-yl]-4-pyrazin-2-yl-pyrrole-2,5-dione]
inhibition of the kinase panel [12]: minimally inhibits

O=C1NC(=O)C(c2ccccc2[N+](=O)[O-])=C1Nc1ccc(O)c(Cl)c1 [SB415286]
AR transcriptional activity [3, 13]: reduced
CWR-R1 cell growth (number of cells) [4]: repressed
dose dependence of inhibitory effects on CWR-R1 cell growth ([4]; up to 50 μM, data not shown): increased with dose up to the maximal dose tested
protein level of AR [9]: reduced
